Test system: HCV genotype 2a
Test: microbe, parasite or virus in culture
Format: cell-based
Details: HCV genotype 2a in Huh7.5 cells, luciferase reporter assay; read-out: 2a EC50
Method: Anti-HCV assays are performed as described by Cho et al. “Identification of a class of HCV inhibitors directed against the nonstructural protein NS4B.” Sci. Transl.
(§1) The compounds of Table 1 were prepared according to the methods described above.

For `COc1ccc(-c2sc(NC(=O)CC3CCCCC3)nc2C)cc1S(=O)(=O)Nc1cccc(O)c1` [AB4114], the EC50 was 200 to 1000 nM.

Same assay, conditions: Hepatitis C virus, Huh7.5, HCV genotype 2a in Huh7.5 cells, luciferase reporter assay; read-out: 2a EC50

`COc1ccc(-c2sc(NC3CCCCC3)nc2C)cc1S(=O)(=O)Nc1cnc(OC)c(C)c1` [AB3948] and `COc1ccc(-c2sc(NC3CCCCC3)nc2C)cc1S(=O)(=O)Nc1cnc(Cl)c(C)c1` [AB3946] fall in the same range of EC50: 200 to 1000 nM for the first, 200 to 1000 nM for the second.

Compared with `COc1ccc(-c2sc(NC(=O)C3CCCC3)nc2C)cc1S(=O)(=O)Nc1ccc(Cl)cc1` [AB4185], `COc1ccc(-c2sc(NC(=O)C3CCCC3)nc2C)cc1S(=O)(=O)Nc1ccc(Cl)nc1` [AB4050] is lower in EC50: over 1000 nM for the first, 200 to 1000 nM for the second.

`COc1ccc(-c2sc(NC(=O)CC3CCCC3)nc2C)cc1S(=O)(=O)Nc1ccc(Cl)cc1F` [AB4171] and `COc1ccc(NS(=O)(=O)c2cc(-c3sc(NC(=O)CC4CCCC4)nc3C)ccc2OC)c(C)c1` [AB4110] fall in the same range of EC50: 200 to 1000 nM for the first, 200 to 1000 nM for the second.

Compared with `COc1ccc(-c2sc(NC(=O)CC3CCCCC3)nc2C)cc1S(=O)(=O)Nc1cccc(O)c1` [AB3826], `COc1ccc(-c2sc(NC(=O)CC3CCCC3)nc2C)cc1S(=O)(=O)Nc1cccc(O)c1` [AB4109] is higher in EC50: under 200 nM for the first, 200 to 1000 nM for the second. The first is the more potent here.

`COc1ccc(-c2sc(NC3CCCCC3)nc2C)cc1S(=O)(=O)NC1CCCNC1` (centres unmarked) [AB4174] and `COc1ccc(-c2sc(NC3CCCCC3)nc2C)cc1S(=O)(=O)NC1CCNCC1` [AB4173] cannot be ordered by EC50: over 1000 nM for the first, over 1000 nM for the second.

`COc1ccccc1NS(=O)(=O)c1cc(-c2sc(NC3CCCCC3)nc2C)ccc1OC` [AB4025] and `COc1ccccc1NS(=O)(=O)c1cc(-c2sc(NC(=O)C3CCCC3)nc2C)ccc1OC` [AB4051] fall in the same range of EC50: 200 to 1000 nM for the first, 200 to 1000 nM for the second.

`COc1ccc(-c2sc(NC(=O)CC3CCCC3)nc2C)cc1S(=O)(=O)Nc1cnc(F)cc1C` [AB4111] and `COc1ccc(-c2sc(NC(=O)CC3CCCCC3)nc2C)cc1S(=O)(=O)Nc1cnc(F)cc1C` [AB4116] fall in the same range of EC50: 200 to 1000 nM for the first, 200 to 1000 nM for the second.

`COc1ccc(-c2sc(NCC3CCCCC3)nc2C)cc1S(=O)(=O)NC1CCCNC1` (centres unmarked) [AB4227] and `COc1ccc(-c2sc(NCC3CCCCC3)nc2C)cc1S(=O)(=O)NC1CCNCC1` [AB4237] cannot be ordered by EC50: over 1000 nM for the first, over 1000 nM for the second.

`COc1ccc(-c2sc(CC3CCCCC3)nc2C)cc1S(=O)(=O)NC1CCCNC1` (centres unmarked) [AB4241] and `COc1ccc(-c2sc(CC3CCCCC3)nc2C)cc1S(=O)(=O)NC1CCNCC1` [AB4240] cannot be ordered by EC50: over 1000 nM for the first, over 1000 nM for the second.

`COc1cc(C)c(NS(=O)(=O)c2cc(-c3sc(NC(=O)CC4CCCCC4)nc3C)ccc2OC)cn1` [AB4112] and `COc1cc(C)c(NS(=O)(=O)c2cc(-c3sc(NC(=O)CC4CCCC4)nc3C)ccc2OC)cn1` [AB4107] fall in the same range of EC50: 200 to 1000 nM for the first, 200 to 1000 nM for the second.

`COc1ccc(NS(=O)(=O)c2cc(-c3sc(NC(=O)C4CCCC4)nc3C)ccc2OC)c(OC)n1` [AB4054] and `COc1ccc(NS(=O)(=O)c2cc(-c3sc(NC4CCCCC4)nc3C)ccc2OC)c(OC)n1` [AB4053] fall in the same range of EC50: 200 to 1000 nM for the first, 200 to 1000 nM for the second.

`COc1ccc(-c2sc(NC3CCCCC3)nc2C)cc1S(=O)(=O)Nc1cnc(F)cc1C` [AB4052] and `COc1cc(C)c(NS(=O)(=O)c2cc(-c3sc(NC4CCCCC4)nc3C)ccc2OC)cn1` [AB3950] cannot be ordered by EC50: under 200 nM for the first, under 200 nM for the second.

`COc1ccc(-c2sc(CC3CCCCC3)nc2C)cc1S(=O)(=O)Nc1ccc(Cl)c(F)c1` [AB4242] and `COc1ccc(-c2sc(CC3CCCCC3)nc2C)cc1S(=O)(=O)Nc1ccc(Cl)c(C)c1` [AB4243] fall in the same range of EC50: 200 to 1000 nM for the first, 200 to 1000 nM for the second.

`COc1ccc(-c2sc(NC3CCCCCC3)nc2C)cc1S(=O)(=O)Nc1cnc(Cl)c(C)c1` [AB4141] and `COc1ccc(-c2sc(NCC3CCCCC3)nc2C)cc1S(=O)(=O)Nc1cnc(Cl)c(C)c1` [AB4226] fall in the same range of EC50: 200 to 1000 nM for the first, 200 to 1000 nM for the second.

First: COc1ccc(-c2sc(NC(=O)CC3CCCCC3)nc2C)cc1S(=O)(=O)Nc1ccc(O)cc1 [AB3680]
Second: COc1ccc(-c2sc(NC(=O)CCC3CCCC3)nc2C)cc1S(=O)(=O)Nc1cccc(O)c1 [AB3837]
The EC50 of the first is higher: over 1000 nM for the first, 200 to 1000 nM for the second.

`COc1ccc(-c2sc(NCC3CCCCC3)nc2C)cc1S(=O)(=O)NCC1CCNCC1` [AB4228] and `COc1ccc(-c2sc(NC(=O)C3CCCC3)nc2C)cc1S(=O)(=O)NC1CCNCC1` [AB4178] cannot be ordered by EC50: over 1000 nM for the first, over 1000 nM for the second.

`COc1ccc(-c2sc(NC(=O)C3CCCC3)nc2C)cc1S(=O)(=O)Nc1cnc(OC)c(C)c1` [AB3864] and `COc1ccc(-c2sc(NC(=O)CC3CCCC3)nc2C)cc1S(=O)(=O)Nc1cnc(Cl)c(C)c1` [AB4108] fall in the same range of EC50: 200 to 1000 nM for the first, 200 to 1000 nM for the second.

`COc1cc(C)c(NS(=O)(=O)c2cc(-c3sc(NC(C)C)nc3C)ccc2OC)cn1` [AB3979] and `COc1ccc(-c2sc(NC(C)C)nc2C)cc1S(=O)(=O)Nc1cnc(Cl)c(C)c1` [AB3977] fall in the same range of EC50: 200 to 1000 nM for the first, 200 to 1000 nM for the second.

`COc1ccc(NS(=O)(=O)c2cc(-c3sc(NC4CCCCCC4)nc3C)ccc2OC)c(C)c1` [AB4140] and `COc1ccc(NS(=O)(=O)c2cc(-c3sc(NC(=O)CC4CCCCC4)nc3C)ccc2OC)c(C)c1` [AB4115] fall in the same range of EC50: 200 to 1000 nM for the first, 200 to 1000 nM for the second.

`COc1ccc(-c2sc(NC3CCCCC3)nc2C)cc1S(=O)(=O)Nc1ccc(Cl)nc1` [AB4024] and `COc1ccc(NS(=O)(=O)c2cc(-c3sc(NC4CCCCC4)nc3C)ccc2OC)cn1` [AB3957] fall in the same range of EC50: 200 to 1000 nM for the first, 200 to 1000 nM for the second.

`COc1ccc(-c2sc(CC3CCCCC3)nc2C)cc1S(=O)(=O)Nc1cnc(Cl)c(C)c1` [AB4239] and `COc1ccc(-c2sc(NC(=O)CC3CCCCC3)nc2C)cc1S(=O)(=O)Nc1cnc(Cl)c(C)c1` [AB4113] fall in the same range of EC50: 200 to 1000 nM for the first, 200 to 1000 nM for the second.

`COc1ccc(-c2sc(NC3CCCCCC3)nc2C)cc1S(=O)(=O)Nc1ccc(Cl)cc1F` [AB4145] and `COc1ccc(-c2sc(NC3CCCCCC3)nc2C)cc1S(=O)(=O)Nc1cccc(O)c1` [AB4139] fall in the same range of EC50: 200 to 1000 nM for the first, 200 to 1000 nM for the second.

First: COc1ccc(-c2sc(NC(=O)C3CCCC3)nc2C)cc1S(=O)(=O)NC1CCCNC1 (centres unmarked) [AB4179]
Second: COc1ccc(-c2sc(NC3CCCCC3)nc2C)cc1S(=O)(=O)Nc1ccc(C)cc1 [AB4106]
The EC50 of the first is higher: over 1000 nM for the first, 200 to 1000 nM for the second.

First: COc1ccc(-c2sc(NCC3CCCCC3)nc2C)cc1S(=O)(=O)Nc1cnc(F)cc1C [AB4225]
Second: COc1ccc(-c2sc(NCC3CCCCC3)nc2C)cc1S(=O)(=O)Nc1cnc(Cl)c(F)c1 [AB4229]
The EC50 of the first is lower: 200 to 1000 nM for the first, over 1000 nM for the second. The first is the more potent here.

Test system: not listed separately
Test: Cell toxicity (CC50), Table 3
Format: cell-based
Details: human, Huh7.5 cells
Method: as §1

Point of comparison: `COc1ccc(NS(=O)(=O)c2cc(-c3sc(NC4CCCCC4)nc3C)ccc2OC)cn1` [AB3957], CC50 9000 nM. Against it:
- COc1ccccc1NS(=O)(=O)c1cc(-c2sc(NC3CCCCC3)nc2C)ccc1OC [AB4025] — within 1.5-fold, 13000 nM
- COc1ccc(-c2sc(NC(=O)CC3CCCCC3)nc2C)cc1S(=O)(=O)Nc1ccc(O)cc1 [AB3680] — 6-fold higher, 54000 nM
- COc1cc(C)c(NS(=O)(=O)c2cc(-c3sc(NC4CCCCC4)nc3C)ccc2OC)cn1 [AB3950] — within 1.5-fold, 12000 nM
- COc1ccc(-c2sc(NC(=O)CC3CCCC3)nc2C)cc1S(=O)(=O)Nc1cccc(O)c1 [AB4109] — 2.3-fold higher, 20700 nM
- COc1ccc(-c2sc(NC(=O)CCC3CCCC3)nc2C)cc1S(=O)(=O)Nc1cccc(O)c1 [AB3837] — 2.4-fold higher, 22000 nM
- COc1ccc(-c2sc(NC3CCCCC3)nc2C)cc1S(=O)(=O)Nc1ccc(C)cc1 [AB4106] — 6.5-fold higher, 58500 nM

From US9309236B2, “PI-kinase inhibitors with broad spectrum anti-infective activity” (The Board of Trustees of the Leland Stanford Junior …, priority 2011, dated 2016)
